In patent US20250197372A1 (priority 2020, published 2025):

Tests used:
[1] = target: T1, recombinant alpha-glucosidase I (human full-length glucosidase I, Glu 1) (Homo sapiens, UniProt Q13724); assay: Alpha-glucosidase I assay (Amplex Red glucose detection, synthetic trisaccharide substrate); assay type: biochemical; conditions: Glucosidase 1; read-out: Glu 1 IC50
T1 construct: 6-His (C); made in house; host or cells: HEK-293T cells transduced with BacMam virus (virus raised in Sf9)
T1 sequence (Q13724 1-837): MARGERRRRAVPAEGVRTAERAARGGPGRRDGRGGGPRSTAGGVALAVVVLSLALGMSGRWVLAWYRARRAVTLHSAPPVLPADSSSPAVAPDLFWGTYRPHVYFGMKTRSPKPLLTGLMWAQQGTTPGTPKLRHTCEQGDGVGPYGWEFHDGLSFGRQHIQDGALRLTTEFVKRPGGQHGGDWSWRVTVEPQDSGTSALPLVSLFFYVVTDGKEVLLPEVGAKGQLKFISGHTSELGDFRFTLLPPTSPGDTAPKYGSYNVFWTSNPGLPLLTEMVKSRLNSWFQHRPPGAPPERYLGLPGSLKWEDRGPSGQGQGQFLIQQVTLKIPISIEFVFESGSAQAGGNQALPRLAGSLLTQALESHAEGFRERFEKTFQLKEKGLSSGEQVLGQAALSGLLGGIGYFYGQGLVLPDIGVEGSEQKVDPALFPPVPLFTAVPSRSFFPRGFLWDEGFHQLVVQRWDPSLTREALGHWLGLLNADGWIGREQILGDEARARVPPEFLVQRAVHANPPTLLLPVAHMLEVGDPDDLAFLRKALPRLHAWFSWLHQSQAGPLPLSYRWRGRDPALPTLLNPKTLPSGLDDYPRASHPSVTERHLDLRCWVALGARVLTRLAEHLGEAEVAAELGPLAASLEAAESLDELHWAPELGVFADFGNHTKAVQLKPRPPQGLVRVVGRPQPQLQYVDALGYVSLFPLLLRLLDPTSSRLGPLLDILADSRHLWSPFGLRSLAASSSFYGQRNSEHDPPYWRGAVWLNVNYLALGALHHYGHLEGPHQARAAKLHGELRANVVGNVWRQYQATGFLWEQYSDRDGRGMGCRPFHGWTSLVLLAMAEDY
Summary of the method: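 Compound dilution series incubated 60 min at 37° C with recombinant His-tagged human glucosidase I ([…]), after which trisaccharide substrate analog was added for 90 min at 37° C. Reaction quenched with 1.5M Tris pH 8; D-glucose detected by Amplex Red fluorescence, 560/590 nm. 4-PL curve fit of percent inhibition gave IC50.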

[2] = target: rat maltase (partially purified alpha-glucosidase from intestinal rat powder); assay: Intestinal alpha-glucosidase assay, maltose substrate (Glucose GO Kit); assay type: biochemical
Summary of the method: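 First step: 60 min, 37 °C, compound with partially purified rat intestinal alpha-glucosidase. Next, maltose or sucrose for 30 min at 37 °C, ended at 90 °C for 5 min. Glucose quantified enzymatically; concentration–inhibition data fitted 4-PL for IC50.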

[N-]=[N+]=Nc1ccc(NCC[C@H]2CC[C@@H](CCN3C[C@H](O)[C@@H](O)[C@H](O)[C@H]3CO)CC2)c([N+](=O)[O-])c1 [Compound 1106, (2R,3R,4R,5S)-2-(hydroxymethyl)-1-{2-[(1s,4s)-4-{2-[(4-azido-2-nitrophenyl)amino]ethyl}cyclohexyl]ethyl}piperidine-3,4,5-triol] was tested, and the IC50 [1] was under 1 nM and the IC50 [2] was 31 nM.

Molecule OC[C@@H]1[C@@H](O)[C@H](O)[C@@H](O)CN1Cc1cccc(CNc2ccc(-c3ccc[nH]3)cc2)c1 [Compound 1082, (2R,3R,4R,5S)-2-(hydroxymethyl)-1-{[3-({[4-(1H-pyrrol-2-yl)phenyl]amino}methyl)phenyl]methyl}piperidine-3,4,5-triol] has an IC50 [1] of 69 nM and an IC50 [2] of 14 nM.

O=[N+]([O-])c1cc(-c2cccnn2)ccc1NCc1ccc(CN2C[C@H](O)[C@@H](O)[C@H](O)[C@H]2CO)cc1 [Compound 1101, (2R,3R,4R,5S)-2-(hydroxymethyl)-1-{[4-({[2-nitro-4-(pyridazin-3-yl)phenyl]amino}methyl)phenyl]methyl}piperidine-3,4,5-triol] was tested, and the IC50 [1] was under 1 nM and the IC50 [2] was under 1 nM.

Cc1cc(NCc2ccc(CN3C[C@H](O)[C@@H](O)[C@H](O)[C@H]3CO)cc2)cc(-c2ncccn2)c1 [Compound 1053, (2R,3R,4R,5S)-2-(hydroxymethyl)-1-{[4-({[3-methyl-5-(pyrimidin-2-yl)phenyl]amino}methyl)phenyl]methyl}piperidine-3,4,5-triol] was tested, and the IC50 [1] was 104 nM and the IC50 [2] was 2 nM.

In the case of Cc1cc(NCc2ccc(CN3C[C@H](O)[C@@H](O)[C@H](O)[C@H]3CO)cc2)cc(C2=COCCO2)c1 [Compound 1050, (2R,3R,4R,5S)-1-{[4-({[3-(5,6-dihydro-1,4-dioxin-2-yl)-5-methylphenyl]amino}methyl)phenyl]methyl}-2-(hydroxymethyl)piperidine-3,4,5-triol], the IC50 [1] is reported as 32 nM and the IC50 [2] is reported as under 1 nM.

With CS(=O)(=O)c1cc(NCc2ccc(CN3C[C@H](O)[C@@H](O)[C@H](O)[C@H]3CO)cc2)cc(-c2ncccn2)c1 [Compound 1059, (2R,3R,4R,5S)-2-(hydroxymethyl)-1-{[4-({[3-methanesulfonyl-5-(pyrimidin-2-yl)phenyl]amino}methyl)phenyl]methyl}piperidine-3,4,5-triol] the IC50 [1] was 33 nM and the IC50 [2] was 8 nM.

Work on O=[N+]([O-])c1cc(-c2ncco2)ccc1NCCc1ccc(CCN2C[C@H](O)[C@@H](O)[C@H](O)[C@H]2CO)cc1 [Compound 1112, (2R,3R,4R,5S)-2-(hydroxymethyl)-1-{2-[4-(2-{[2-nitro-4-(1,3-oxazol-2-yl)phenyl]amino}ethyl)phenyl]ethyl}piperidine-3,4,5-triol] yielded an IC50 [1] of 89 nM and an IC50 [2] of 1 nM.

In the case of OC[C@@H]1[C@@H](O)[C@H](O)[C@@H](O)CN1Cc1cccc(CNc2ccc(-c3cccnn3)cc2)c1 [Compound 1083, (2R,3R,4R,5S)-2-(hydroxymethyl)-1-{[3-({[4-(pyridazin-3-yl)phenyl]amino}methyl)phenyl]methyl}piperidine-3,4,5-triol], the IC50 [1] is reported as 72 nM and the IC50 [2] is reported as 54 nM.

Work on N#Cc1cc(NCc2ccc(CN3C[C@H](O)[C@@H](O)[C@H](O)[C@H]3CO)cc2)cc(N2CCOCC2)c1 [Compound 1060, 3-(morpholin-4-yl)-5-{[(4-{[(2R,3R,4R,5S)-3,4,5-trihydroxy-2-(hydroxymethyl)piperidin-1-yl]methyl}phenyl)methyl]amino}-benzonitrile] yielded an IC50 [1] of 41 nM and an IC50 [2] of 9 nM.

With [N-]=[N+]=Nc1ccc(NCC[C@H]2CC[C@H](CCN3C[C@H](O)[C@@H](O)[C@H](O)[C@H]3CO)CC2)c([N+](=O)[O-])c1 [Compound 1107, (2R,3R,4R,5S)-2-(hydroxymethyl)-1-{2-[(1r,4r)-4-{2-[(4-azido-2-nitrophenyl)amino]ethyl}cyclohexyl]ethyl}piperidine-3,4,5-triol] the IC50 [1] was 107 nM and the IC50 [2] was 249 nM.
